# Data reported in article PMC10060639, “Prediction and bioactivity of small-molecule antimicrobial peptides from Protaetia brevitarsis Lewis larvae” (Frontiers in Microbiology, 2023).
# Where two headings read alike, the source gives them in different places. Ends that are not written are not given here.
# Legend:
# E. coli [1] = type: cell-based, Escherichia coli
# Experimental: (§1) Staphylococcus aureus CMCC(B) 26003, B. thuringiensis, E. coli, and P. aeruginosa CMCC(B)10104 were cultured in NA medium and C. albicans CMCC(F) 98001 was cultured in SDA medium. They were incubated in a constant-temperature (bacteria: 37°C; fungi: 28°C) incubator for 16–20 h. Thereafter, single colonies were picked and incubated in 50 mL MHB at 160 rpm/min at the optimal growth temperature (bacteria: 37°C; fungi: 28°C). Microbial suspensions of 1 × 10^6 CFU/mL were then prepared ([Chen et al., 2016]).
# (§2) The MIC values of five candidate peptides (FD4, FD10, FD12, FD14, and FD15), which were selected based on physicochemical properties and antimicrobial effects (determined by the agar punch method), were evaluated using a micro-broth dilution method ([Zhou and Zhou, 2018]). Serial two-fold dilutions of the candidate peptides were prepared in 96-well plates containing the same microbial inoculum (E. coli, P. aeruginosa CMCC(B)10104, B. thuringiensis, S. aureus CMCC(B) 26003, or C. albicans CMCC(F) 98001). The plates were incubated (bacteria: 37°C; fungi: 28°C) for 16–18 h. Ampicillin was used as the positive control. The MIC was defined as the lowest peptide concentration where no visible growth occurred ([Diao et al., 2014]). The experiment was conducted in triplicate.
# [2] = test system: P. aeruginosa CMCC(B)10104; type: cell-based, Pseudomonas aeruginosa
# Experimental: as §1, §2
# B. thuringiensis [3] = type: cell-based, Bacillus thuringiensis
# Experimental: as §1, §2
# S. aureus CMCC(B) 26003 [4] = type: cell-based, Staphylococcus aureus
# Experimental: as §1, §2
# [5] = test system: C. albicans CMCC(F) 98001; type: cell-based, Candida albicans
# Experimental: as §1, §2
# E. coli [6] = type: cell-based, Escherichia coli; remark: listed apart in the source
# Experimental: (§3) E. coli and S. aureus CMCC(B) 26003 (1 × 10^6 CFU/mL) were incubated in MHB with various final physiological concentrations of serum salts (150 mM NaCl, 4.5 mM KCl, 1 mM MgCl2, and […]). 50 μL of these E. coli or S. aureus CMCC(B) 26003 suspensions and 50 μL of AMP (serially diluted two-fold to a final concentration of 256 μg/mL) were added to a 96-well plate and incubated at 37°C for 16–18 h ([Chou et al., 2016]). The MIC values were then determined. The experiment was conducted in triplicate.
# S. aureus CMCC(B) 26003 [7] = type: cell-based, Staphylococcus aureus; remark: listed apart in the source
# Experimental: as §3
# E. coli [8] = assay: agar punch method, inhibition circle; type: cell-based, Escherichia coli; settings: 6 mm hole, 55 μL of 1 mg/mL, NA, 37°C, 16–18 h, mean ± SD, three replicates, + control given per plate group
# Experimental: as §1
# (§4) 100 μL of 1 × 10^6 CFU/mL microbial suspension (E. coli, P. aeruginosa CMCC(B)10104, B. thuringiensis, S. aureus CMCC(B) 26003, or C. albicans CMCC(F) 98001) was evenly applied to dishes containing 20 mL NA (bacteria) or SDA (fungi). After the microbial solution solidified, six holes per dish were punched with a sterile pipette tip of 6 mm in diameter, with each hole spaced >20 mm apart and > 10 mm apart from the edge of the dish. […] Next, 55 μL of 1 mg/mL control/treatment was added to each hole and incubated in a constant-temperature (bacteria: 37°C; fungi: 28°C) incubator for 16–18 h ([Chen et al., 2016]; [Gong et al., 2022]), with three replicates for each treatment group. The diameter of the inhibition circle was measured using ImageJ software (National Institutes of Health, United States) in order to preliminarily determine whether the candidate peptides had inhibitory activity.
# [9] = test system: P. aeruginosa CMCC(B)10104; assay: agar punch method, inhibition circle; type: cell-based, Pseudomonas aeruginosa; settings: 6 mm hole, 55 μL of 1 mg/mL, NA, 37°C, 16–18 h, mean ± SD, three replicates, + control given per plate group
# Experimental: as §1, §4
# B. thuringiensis [10] = assay: agar punch method, inhibition circle; type: cell-based, Bacillus thuringiensis; settings: 6 mm hole, 55 μL of 1 mg/mL, NA, 37°C (Fig. S3C: 30°C), 16–18 h, mean ± SD, three replicates, + control given per plate group
# Experimental: as §1, §4
# S. aureus CMCC(B) 26003 [11] = assay: agar punch method, inhibition circle; type: cell-based, Staphylococcus aureus; settings: 6 mm hole, 55 μL of 1 mg/mL, NA, 37°C, 16–18 h, mean ± SD, three replicates, + control given per plate group
# Experimental: as §1, §4
# [12] = test system: C. albicans CMCC(F) 98001; assay: agar punch method, inhibition circle; type: cell-based, Candida albicans; settings: 6 mm hole, 55 μL of 1 mg/mL, SDA, 28°C, 16–18 h, mean ± SD, three replicates, + control given per plate group
# Experimental: as §1, §4
# E. coli [13] = assay: time-kill assay; type: cell-based, Escherichia coli; settings: 2× MIC, MHB with 10^6 CFU/mL, 37°C, 100 rpm, colony counting, n = 3
# Experimental: (§5) The kill-time curve assay method was used to investigate the bactericidal effects of the […] according to the technique described by [Joray et al. (2011)]. A time–kill assay was used to examine the rate at which three AMPs (FD10, FD12, and FD15) killed two microbes (S. aureus CMCC(B) 26003 and E. coli) in vitro over time, based on the number of viable bacteria left at various time points after AMP exposure. Briefly, AMP at 2× MIC was added to MHB containing 10^6 CFU/mL S. aureus CMCC(B) 26003 or E. coli and the mixture was then incubated at 37°C and 100 rpm. At various time points, a sample was taken, serially diluted, and plated on MHA for colony counting ([Flamm et al., 2019]).
# S. aureus CMCC(B) 26003 [14] = assay: time-kill assay; type: cell-based, Staphylococcus aureus; settings: 2× MIC, MHB with 10^6 CFU/mL, 37°C, 100 rpm, colony counting, n = 3
# Experimental: as §5
# [15] = micro-broth dilution, two-fold dilutions, 37°C, 16–18 h, no visible growth, triplicate
Substance,Inhibition circle diameter (mm) E. coli (E. coli [8]) [mm],Inhibition circle diameter (mm) P. aeruginosa CMCC(B)10104 [9] [mm],Inhibition circle diameter (mm) B. thuringiensis (B. thuringiensis [10]) [mm],Inhibition circle diameter (mm) S. aureus CMCC(B) 26003 (S. aureus CMCC(B) 26003 [11]) [mm],Inhibition circle diameter (mm) C. albicans CMCC(F) 98001 [12] [mm],other results
VFRLKKWIQKVI [FD10],,,,,,"MIC (μg/mL) E. coli (E. coli [1]): 8 µg/mL; MIC (μg/mL) P. aeruginosa CMCC(B)10104 ([2]; CMCC(B)10104): 8 µg/mL; MIC (μg/mL) B. thuringiensis (B. thuringiensis [3]): 8 µg/mL; MIC (μg/mL) S. aureus CMCC(B) 26003 (S. aureus CMCC(B) 26003 [4]; CMCC(B) 26003): 16 µg/mL; MIC (μg/mL) C. albicans CMCC(F) 98001 ([5]; CMCC(F) 98001): 16 µg/mL; MIC, Control (E. coli [6]): 8 µg/mL; MIC, FeCl3 (E. coli [6]): 4 µg/mL; MIC, KCl (E. coli [6]): 4 µg/mL; MIC, MgCl2 (E. coli [6]): 16 µg/mL; MIC, NaCl (E. coli [6]): 16 µg/mL; MIC, Control (S. aureus CMCC(B) 26003 [7]; CMCC(B) 26003): 16 µg/mL; MIC, FeCl3 (S. aureus CMCC(B) 26003 [7]; CMCC(B) 26003): 16 µg/mL; MIC, KCl (S. aureus CMCC(B) 26003 [7]; CMCC(B) 26003): 8 µg/mL; MIC, MgCl2 (S. aureus CMCC(B) 26003 [7]; CMCC(B) 26003): 32 µg/mL; MIC, NaCl (S. aureus CMCC(B) 26003 [7]; CMCC(B) 26003): 32 µg/mL"
"STLHLVLRLR-NH2 [FD15, FD16 with -NH2 added to the terminal]",11.18 ± 0.38,0,9.15 ± 0.44,10.02 ± 0.22,0,"MIC (μg/mL) E. coli (E. coli [1]; [15]): 32 µg/mL; MIC (μg/mL) P. aeruginosa CMCC(B)10104 [2, 15]: - (−Indicated that the MIC was greater than 256 μg/mL.); MIC (μg/mL) B. thuringiensis (B. thuringiensis [3]; [15]): 128 µg/mL; MIC (μg/mL) S. aureus CMCC(B) 26003 (S. aureus CMCC(B) 26003 [4]; [15]): 16 µg/mL; MIC (μg/mL) C. albicans CMCC(F) 98001 ([5]; micro-broth dilution, two-fold dilutions, 28°C, 16–18 h, no visible growth, triplicate): - (−Indicated that the MIC was greater than 256 μg/mL.); MIC, MgCl2 (E. coli [6]; E. coli, MHB with 1 mM MgCl2, 37°C, 16–18 h, triplicate): 64 µg/mL; MIC, FeCl3 (E. coli [6]; E. coli, MHB with 4 mM FeCl3, 37°C, 16–18 h, triplicate): 16 µg/mL; MIC, KCl (E. coli [6]; E. coli, MHB with 4.5 mM KCl, 37°C, 16–18 h, triplicate): 64 µg/mL; MIC, NaCl (E. coli [6]; E. coli, MHB with 150 mM NaCl, 37°C, 16–18 h, triplicate): 64 µg/mL; MIC, Control (E. coli [6]; E. coli, MHB, absence of physiological salts, 37°C, 16–18 h, triplicate): 32 µg/mL; MIC, MgCl2 (S. aureus CMCC(B) 26003 [7]; S. aureus CMCC(B) 26003, MHB with 1 mM MgCl2, 37°C, 16–18 h, triplicate): 64 µg/mL; MIC, FeCl3 (S. aureus CMCC(B) 26003 [7]; S. aureus CMCC(B) 26003, MHB with 4 mM FeCl3, 37°C, 16–18 h, triplicate): 32 µg/mL; MIC, KCl (S. aureus CMCC(B) 26003 [7]; S. aureus CMCC(B) 26003, MHB with 4.5 mM KCl, 37°C, 16–18 h, triplicate): 32 µg/mL; MIC, NaCl (S. aureus CMCC(B) 26003 [7]; S. aureus CMCC(B) 26003, MHB with 150 mM NaCl, 37°C, 16–18 h, triplicate): 64 µg/mL; MIC, Control (S. aureus CMCC(B) 26003 [7]; S. aureus CMCC(B) 26003, MHB, absence of physiological salts, 37°C, 16–18 h, triplicate): 16 µg/mL; time within which almost all E. coli cells were killed (E. coli [13]): ≤ 1 h; time within which almost all S. aureus cells were killed (S. aureus CMCC(B) 26003 [14]): ≤ 1 h"
VACAKRVVR [FD1],0,0,0,0,0,
ANWDKVIR [FD13],0,0,0,0,0,
IRAWVAWRNR [FD3],0,0,0,0,0,
KLLVPRCR [FD6],0,0,0,0,0,
STLHLVLRLR [FD16],0,0,0,0,0,
KIYVLLRRQA [FD12],,,,,,"MIC (μg/mL) E. coli (E. coli [1]): 32 µg/mL; MIC (μg/mL) B. thuringiensis (B. thuringiensis [3]): 128 µg/mL; MIC (μg/mL) S. aureus CMCC(B) 26003 (S. aureus CMCC(B) 26003 [4]; CMCC(B) 26003): 16 µg/mL; MIC, Control (E. coli [6]): 32 µg/mL; MIC, FeCl3 (E. coli [6]): 32 µg/mL; MIC, KCl (E. coli [6]): 16 µg/mL; MIC, MgCl2 (E. coli [6]): 64 µg/mL; MIC, NaCl (E. coli [6]): 64 µg/mL; MIC, Control (S. aureus CMCC(B) 26003 [7]; CMCC(B) 26003): 16 µg/mL; MIC, FeCl3 (S. aureus CMCC(B) 26003 [7]; CMCC(B) 26003): 32 µg/mL; MIC, KCl (S. aureus CMCC(B) 26003 [7]; CMCC(B) 26003): 8 µg/mL; MIC, MgCl2 (S. aureus CMCC(B) 26003 [7]; CMCC(B) 26003): 32 µg/mL; MIC, NaCl (S. aureus CMCC(B) 26003 [7]; CMCC(B) 26003): 32 µg/mL"
RIGRLVTRAAF [FD7],0,0,0,0,0,
IVHLLTKMTK [FD4],,,,,,MIC (μg/mL) S. aureus CMCC(B) 26003 (S. aureus CMCC(B) 26003 [4]; CMCC(B) 26003): 256 µg/mL
LARTLKRLGM [FD2],0,0,0,0,0,
LVTRAAFHGKKV [FD8],0,0,0,0,0,
ANWKKVIR [FD14],,,,,,MIC (μg/mL) E. coli (E. coli [1]): 256 µg/mL; MIC (μg/mL) P. aeruginosa CMCC(B)10104 ([2]; CMCC(B)10104): 256 µg/mL; MIC (μg/mL) B. thuringiensis (B. thuringiensis [3]): 256 µg/mL
AFQRTIRKFL [FD5],0,0,0,0,0,
FPVGRVHRLL [FD11],0,0,0,0,0,
SLARAGKVR [FD9],0,0,0,0,0,
